Broadly, the IC50 is the midpoint of a concentration-inhibition curve. The low end stands for inhibition by little substance, the high end for a need for much substance.

One assay deals with HCT-116. As to the kind of experiment: Cytotoxicity against human HCT116 cells after 72 hrs by MTS assay. Type of assay: functional, cell-based. As to conditions: HCT-116, 72 h. A general note: Tetrazolium assays rely on reduction of a dye to a coloured formazan, in cell work by metabolically active cells.
In a further assay the test system is A2780. Put plainly: Cytotoxicity against human A2780 cells after 72 hrs by MTS assay. As to conditions: A2780, 72 h. Type of assay: functional, cell-based.

`CC(=O)O[C@H]1C/C(C)=C/C(=O)C[C@@H](C)/C=C/[C@@]2(C)CC[C@@H](C(C)(C)OC(C)=O)[C@H]12` (relative stereo): the IC50 in the assay on HCT-116 stood at 80 µM; in the assay on A2780, 42 µM. The corresponding values for `C=C(CCCC(O)CC(C)O)C[C@H]1CC(=C)C[C@@H](O)C/C(C)=C/[C@H](O)CCCC(=O)O1` (stereo not given in full) [ARENOLIDE] are 21 µM and 9.8 µM.

In the assay with A2780, `CC(=O)O[C@H]1/C=C(/C)CC(=O)C[C@@H](C)/C=C/[C@@]2(C)CC[C@@H](C(C)(C)OC(C)=O)[C@H]12` (relative stereo) returned an IC50 of 25 µM. This lies in the double-digit micromolar range.
